Experiments:
primary rat adipocytes = assay: Lipogenesis in rat adipocytes; type: cell-based
Procedure: Lipogenesis in Rat Adipocytes
As a measure of in vitro potency of the insulins of the invention, lipogenesis can be used. Primary rat adipocytes are isolated from the epididymale fat pads and incubated with 3H-glucose in buffer containing e.g. 1% fat free HSA and either standard (human insulin, HI) or insulin of the invention. The labelled glucose is converted into extractable lipids in a concentration dependent way, resulting in full concentration response curves. The result is expressed as relative potency (%) with 95% confidence limits of insulin of the invention compared to standard (HI).

PCSK9 = target: T1, PCSK9 (Homo sapiens, UniProt Q8NBP7); assay: PCSK9-LDL-R binding competitive ELISA; settings: apparent binding affinity
T1 construct: purchased BioSite/BPSBioscience (PCSK9); R & D systems (rhLDL-R) 71304 (PCSK9); 2148-LD (rhLDL-R); host or cells: rhLDL-R: NSO-derived

HepG2 cells = assay: LDL uptake assay in HepG2 cells in the presence of PCSK9; type: cell-based, human; settings: PCSK9 10 ug/mL
[1] = target: T2, human insulin receptor (IR), solubilised human IR-A (Homo sapiens, UniProt P06213); assay: Insulin receptor affinity on solubilised receptors, competition binding SPA, 0% HSA; settings: Table 3, example numbers, binding affinity relative to human insulin
T2 construct: baby hamster kidney (BHK) cells overexpressing the IR-A holoreceptor; made in house; host or cells: baby hamster kidney (BHK) cells overexpressing IR-A; detergent-solubilised, WGA semipurified

[2] = target: T2, human insulin receptor (IR), solubilised human IR-A; assay: Insulin receptor affinity SPA, related assay with 1.5% HSA in binding buffer; settings: Table 3, example numbers, binding affinity relative to human insulin
[3] = in vivo
[4] = Table 3, example numbers, potency relative to human insulin
[5] = Table 4, labels are comparator compound numbers, relative to human insulin
[6] = Table 5, example numbers, Ki converted from IC50
[7] = Table 6, labels are comparator compound numbers

| Substance | Lipogenesis 1% HSA (% rel to HI) (primary rat adipocytes; [4]) | Lipogenesis 1% HSA (% rel to HI) (primary rat adipocytes; [5]) | also measured |
| --- | --- | --- | --- |
| EGF(A)(301L, 309R, 312E, 321E)-[GAQP]2-Insulin(B3E, B29K(eicosanedioyl-gGlu-2×OEG), desB30) [Example 6] | 0.06 % rel to HI | 0.06 % rel to HI | Ki (PCSK9; [6]): 2.49 nM |
| EGF(A)(301L, 309R, 312E, 321E)-[GAQP]2-Insulin(B3E, B29K(hexadecanedioyl-gGlu-2×OEG), desB30) [Example 1] | 0.49 % rel to HI | 0.14 % rel to HI | – |
| EGF(A)(301L, 309R, 312E, 321E)-[GAQP]2-Insulin(B3E, B29K(octadecanedioyl-gGlu-2×OEG), desB30) [Example 3] | 0.16 % rel to HI | 0.06 % rel to HI | – |
| EGF(A)(301L, 309R, 312E, 321E)-[GAQP]2-Insulin(B3E, B29K(octadecanedioyl-gGlu-OEG), desB30) [Example 5] | – | 0.44 % rel to HI | – |
| EGF(A)(301L, 309R, 312E, 321E)-[GAQP]2-Insulin(B29K(eicosanedioyl-gGlu-2×OEG), desB30) [Example 7] | – | 0.18 % rel to HI | Ki (PCSK9; [7]): 1.74 nM |
| EGF(A)(301L, 309R, 312E, 321E)-[GAQP]2-Insulin(B29K(octadecanedioyl-gGlu-2×OEG), desB30) [Example 4] | 0.13 % rel to HI | 0.07 % rel to HI | – |
| EGF(A)(301L, 309R, 312E, 321E)-[GAQP]3-Insulin(A14E, B29K(octadecanedioyl-gGlu-2×OEG), desB30) [Example 10] | 0.12 % rel to HI | – | EC50 (HepG2 cells; [7]): 152 nM |
| EGF(A)(301L, 309R, 312E, 321E)-[GAQP]4-Insulin(A14E, B29K(octadecanedioyl-gGlu-2×OEG), desB30) [Example 11] | 0.12 % rel to HI | – | – |
| EGF(A)(301L, 309R, 312E, 321E)-[GAQP]4-Insulin(B29K(octadecanedioyl-gGlu-2×OEG), desB30) [Example 12] | 0.14 % rel to HI | – | – |
| EGF(A)(301L, 309R, 312E, 321E)-[GAQP]6-Insulin(A14E, B29K(eicosanedioyl-gGlu-2×OEG), desB30 [Example 16] | 0.08 % rel to HI | – | hIR-A 0% HSA (% rel to HI) [1]: 4.77 % rel to HI; hIR-A 1.5% HSA (% rel to HI) [2]: 0.26 % rel to HI; Ki (PCSK9; [6]): 1.75 nM |
| EGF(A)(301L, 309R, 312E, 321E)-[GAQP]6-Insulin(A14E, B29K(octadecanedioyl-gGlu-2×OEG), desB30) [Example 13] | 0.11 % rel to HI | – | hIR-A 0% HSA (% rel to HI) [1]: 5.53 % rel to HI; Rat iv Mean Residence Time MRT [3]: 13.56 h; hIR-A 1.5% HSA (% rel to HI) [2]: 0.35 % rel to HI; EC50 (HepG2 cells; Table 5, example numbers): 170 nM; Ki (PCSK9; [6]): 1.92 nM |
| EGF(A)(301L, 309R, 312E, 321E)-[GAQP]6-Insulin(A14E, B29K(octadecanedioyl-gGlu-OEG), desB30) [Example 15] | 0.08 % rel to HI | – | hIR-A 0% HSA (% rel to HI) [1]: 5.70 % rel to HI; hIR-A 1.5% HSA (% rel to HI) [2]: 0.23 % rel to HI; Ki (PCSK9; [6]): 2.07 nM |
| EGF(A)(301L, 309R, 312E, 321E)-[GAQP]6-Insulin(B29K(octadecanedioyl-gGlu-2×OEG), desB30) [Example 14] | 0.10 % rel to HI | – | – |
| EGF(A)(301L, 309R, 312E, 321E)-[GAQP]10-Insulin(B29K(octadecanedioyl-gGlu-2×OEG), desB30) [Example 2] | – | 0.06 % rel to HI | – |
| EGF(A)(301L, 309R, 312E, 321E)-[GAQP]12-Insulin(B29K(octadecanedioyl-gGlu-2×OEG), desB30) [Example 18] | 0.09 % rel to HI | – | – |
| EGF(A)(301L, 309R, 312E, 321E)-[GAQP]13-Insulin(B29K(octadecanedioyl-gGlu-2×OEG), desB30) [Example 9] | 0.12 % rel to HI | – | – |
| EGF(A)(301L, 309R, 312E, 321E)-[GAQP]19-Insulin(A14E, B29K(eicosanedioyl-gGlu-2×OEG), desB30) [Example 23] | 0.02 % rel to HI | – | hIR-A 0% HSA (% rel to HI) [1]: 2.89 % rel to HI; hIR-A 1.5% HSA (% rel to HI) [2]: 0.14 % rel to HI; EC50 (HepG2 cells; Table 5, example numbers): 126 nM |
| EGF(A)(301L, 309R, 312E, 321E)-[GAQP]19-Insulin(B29K(eicosanedioyl-gGlu-2×OEG), desB30) [Example 22] | 0.06 % rel to HI | – | – |
| EGF(A)(301L, 309R, 312E, 321E)-[GAQP]19-Insulin(B29K(octadecanedioyl-gGlu-2×OEG), desB30) [Example 19] | 0.09 % rel to HI | – | – |
| EGF(A)(301L, 309R, 312E, 321E)-[GAQP]119-Insulin(A14E, B29K(octadecanedioyl-gGlu-2×OEG), desB30) [Example 20] | 0.03 % rel to HI | – | EC50 (HepG2 cells; Table 5, example numbers): 123 nM |
| EGF(A)(301L, 309R, 312E, 321E)-[GAQP]119-Insulin(B3E, B29K(eicosanedioyl-gGlu-2×OEG), desB30) [Example 24] | 0.06 % rel to HI | – | – |
| EGF(A)(301L, 309R, 312E, 321E)-[GAQP]119-Insulin(B3E, B29K(octadecanedioyl-gGlu-2×OEG), desB30) [Example 21] | 0.07 % rel to HI | – | – |
| EGF(A)(301L, 309R, 312E, 321E)-[GQAP]2-Insulin(B29K(octadecanedioyl-gGlu-2×OEG), desB30) [Example 8] | 0.14 % rel to HI | 0.30 % rel to HI | – |

From patent US11649269B2, “Bifunctional compounds comprising insulin peptides and EGF(A) peptides” (Novo Nordisk A/S, priority 2018, dated 2023)
